# Read-outs that look alike come from different tables or passages of the source.
# What was measured:
# [1] = tested on: Panc2.13 (Pancreatic) cell line; experiment: Proliferation of Panc2.13; assay type: cell-based; settings: for IC50: read-out: IC50 in μM Panc2.13 (Pancreatic); for ratio of (IC50 of K01)/(IC50 of compound), Panc2.13: value in parenthesis
# Procedure: (§1) The diterpenoid compounds were tested in A549, a non-small cell lung cancer cell line harboring a K-Ras activating mutation. Briefly, A549 cells at a density of 1,000 cells/well were seeded in 96-well plates and incubated at 37° C. for 24 hours. A series of different concentrations of compound stocks (500×) were prepared by 3-fold serial dilution in DMSO. These compounds were further diluted in culture media and then added to cells so that the final DMSO concentration was not exceeding 0.25%. After 96 hours of incubation, 50 μL of CellTiter Glo reagent (Promega) was added to each well and luminescence was measured after 10 minutes using EnVision (PerkinElmer). Luminescence from cells treated with DMSO alone was set as Max and % of inhibition was calculated as follows: Inhibition %=(Max−Sample value)/Max×100. Data was analyzed using XL-fit software (ID Business Solutions Ltd.) and IC50, relative IC50, and % of top inhibition was calculated. Some of the compounds in this disclosure were very potent in blocking proliferation of A549 lung cancer cells at low nM range. In addition, potency of inhibiting A549 proliferation correlated well with its binding affinity to PKCs for this series of compounds. In other words, higher affinity binders had stronger inhibitory effects on A549 proliferation. This further support the notion that activation, rather than inhibition, of certain PKC isoforms is required to block proliferation of cancer cells, some of which may harbor K-Ras mutations. This is in sharp contrast to previous literature and common belief that inhibition of PKC is necessary to block cancer cell growth (Kang, 2014, New Journal of Science, 2014:1-36). Data presented here is in agreement with recent findings that many loss-of-function but not gain-of-function mutations of PKC isoforms have been identified in many human cancers (Antal et al., 2015, Cell, 160:489-502).
# (§2) The compounds in this disclosure were tested for their potency in blocking proliferation of a few other cancer cells lines, including K-Ras mutant pancreatic cell lines Panc2.13 and KP-4, leukemia cell line HL-60, and lymphoma cell lines Namalwa and Mino. Similar procedures as in Example 67 were followed. Initial cell numbers seeded in 96-well plates were different for different cell lines: 3000 cells/well for Panc2.13; 800-1000 cells/well for KP-4; 5000 cells/well for HL-60; 5000-10000 cells/well for Namalwa and Mino. A ratio ratio of (IC50 of K01)/(IC50 of compound) (data in parenthesis in Table 5) was used to normalize the compound potency from different assay batches to a common comparator […].
# [2] = tested on: Namalwa (Lymphoma) cell line; experiment: Proliferation of Namalwa; assay type: cell-based; settings: for IC50: read-out: IC50 in μM Namalwa (Lymphoma); for ratio of (IC50 of K01)/(IC50 of compound), Namalwa: value in parenthesis
# Procedure: as §1, §2
# [3] = tested on: KP-4 (Pancreatic) cell line; experiment: Proliferation of KP-4; assay type: cell-based
# Procedure: as §1, §2
# [4] = tested on: phosphorylation of CaMKii at T286 in Panc1 cells; experiment: CaMKii phosphorylation in Panc1 cell line (Western blot); assay type: cell-based; settings: 0.2 μM and 1 μM, 48 hours (FIG. 5)
# Procedure: Panc1 (a pancreatic cancer cell line) cells (˜5-8 millions) were seeded in 10 cm dishes (or ˜2 millions in 6 cm dishes) and treated next day with prostratin (K-101, 0.2 μM and 1 μM) or 0.02 μM and […] of K101-C1347, -C134801, and -C134802 for 48 hours. Cells were then collected/lysed for Western blot analysis. Protein quantification, SDS-PAGE, and Western blot procedures were performed as described in Example 65, except that a different lysis buffer (1 ml of 10×TNE [20 mL 1M Tris pH7.5; 30 mL 5M NaCl; 2 mL 0.5M EDTA; 48 mL d2H2O], 1 ml of 10% NP40, 7.7 mL of dH2O, 100 μL of 10× Protease inhibitors, 100 μL of 10× Phosphatase inhibitors, and 10 μl DTT) was used. To assess the effect of diterpenoid compounds on CaMKii phosphorylation, a phospho-specific antibody P-CaMKii (T286) (Abcam, cat #32678) was used for detection. Phosphorylation of CaMKii at T286 is a marker for activation of CaMKii kinase in the Wnt/Ca^2+ signaling pathway when […] and thus a downstream marker for inhibition of K-Ras stemness (Wang et al., Cell. 2015, 163(5):1237-51).
# PANC1 cells = experiment: Sphere formation assay (cancer stemness); assay type: cell-based; settings: Homo sapiens, PANC-1, read-out: concentration exhibiting at least 50% inhibition on the sphere forming efficiency
# Procedure: A group of diterpenoid compounds of the present disclosure were tested to assess their effects on blocking formation of spheres from cancer cell lines such as PANC1, a K-Ras mutant pancreatic cell line. Briefly, PANC1 cells were harvested, re-suspended as single cell suspensions, counted and seeded into Ultra Low Attachment Culture 96-well plate (Corning, Cat #3474) at 100 cells/well in 100 μl of complete media (with 10% FBS) containing 2% Matrigel (Corning, Cat #354234) and DMSO or compounds. Six replicates per condition were seeded. The seeded cells were placed in the 37° C. tissue culture incubator. 10 μl of low serum containing media (with 0.1% FBS) was added to each well every week. Spheres formed after 3-4 weeks were counted. Sphere forming efficiency was expressed as percentage of # of spheres/# of cells seeded.
# [5] = tested on: HL-60 (Leukemia) cell line; experiment: Proliferation of HL-60; assay type: cell-based
# Procedure: as §1, §2
# [6] = tested on: Mino (Lymphoma) cell line; experiment: Proliferation of Mino; assay type: cell-based
# Procedure: as §1, §2
# [7] = tested on: A549 non-small cell lung cancer cell line; experiment: Proliferation of A549 (CellTiter Glo); assay type: cell-based; settings: Homo sapiens, read-out: IC50 μM (A549 Cell Line)
# In short: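 A549 cells (K-Ras mutant) seeded 1,000/well, 24 h at 37° C, then treated with 3-fold serial dilutions (final DMSO ≤0.25%) for 96 h. Viability by CellTiter Glo luminescence; % inhibition vs DMSO-only Max, curve-fit to give IC50, relative IC50 and % top inhibition.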
# C1b domain of human PKCα = target: T1, C1b domain of human PKCα (Homo sapiens, UniProt P17252); experiment: biochemical; assay type: binding; settings: 3H-PDBu competition
# T1 construct: Genes encoding C1b domains of human PKCα, δ, ε, θ, and PKD1 (PKCμ) were synthesized; made in house; host or cells: E. coli BL21(DE3)
# In short: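 Competitive binding against 3H-PDBu tracer used recombinant GST-C1b fusion protein expressed in E. coli. Incubation ran 10 min at 37°C with shaking, then 20 min on ice, followed by filtration and scintillation counting of trapped 3H-PDBu. Affinity was derived using each protein preparation's experimentally determined Kd for 3H-PDBu.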
# C1b domain of human PKCδ = target: T2, C1b domain of human PKCδ (Homo sapiens, UniProt Q05655); experiment: Competitive 3H-PDBu binding to C1b domain of PKCδ; settings: Ki PKCδ, 3H-PDBu competition
# T2 construct: Genes encoding C1b domains of human PKCα, δ, ε, θ, and PKD1 (PKCμ) were synthesized; made in house; host or cells: E. coli BL21(DE3)
# T2 sequence (Q05655 230-280 limits assumed): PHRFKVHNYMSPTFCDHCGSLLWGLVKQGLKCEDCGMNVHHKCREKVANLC
# In short: (§3)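 First, the E. coli-produced human GST-C1b protein was mixed with compound and 3H-PDBu and shaken 10 min at 37° C. Next, the plate sat on ice 20 min before filtration and scintillation counting of bound tracer. Finally, IC50 fits were transformed into Ki values.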
# [8] = target: T3, C1b domain of human PKD1 (PKCμ) (Homo sapiens, UniProt Q15139); experiment: biochemical; assay type: binding
# T3 construct: Genes encoding C1b domains of human PKCα, δ, ε, θ, and PKD1 (PKCμ) were synthesized; made in house; host or cells: E. coli BL21(DE3)
# T3 sequence (Q15139 270-320 limits assumed): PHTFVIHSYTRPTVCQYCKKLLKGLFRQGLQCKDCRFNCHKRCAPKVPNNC
# In short: as §3
# C1b domain of human PKCθ = target: T4, C1b domain of human PKCθ (Homo sapiens, UniProt Q04759); experiment: Competitive 3H-PDBu binding to C1b domain of PKCθ
# T4 construct: Genes encoding C1b domains of human PKCα, δ, ε, θ, and PKD1 (PKCμ) were synthesized; made in house; host or cells: E. coli BL21(DE3)
# T4 sequence (Q04759 231-281 limits assumed): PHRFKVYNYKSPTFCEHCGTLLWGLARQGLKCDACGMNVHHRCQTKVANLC
# In short: as §3
# [9] = tested on: phosphorylation of PKCμ, PKCδ and Erk1/2 in A549 lung cancer cells; assay type: cell-based; settings: 0.3 μM, 30 minutes, Western blot (FIG. 1)
# Procedure: Cells were then treated with different drugs at indicated concentrations for 30 minutes. […] Imagequant LAS4000 (GE) was used to scan membranes if secondary antibodies anti-mouse IgG HRP conjugate or anti-rabbit IgG HRP conjugate (dilutions from 1:2000-1:10000) were used. For ProteinSimple Wes system, manufacture's procedure was followed (ProteinSimple 12-230 kDa Wes Separation Module) for sample preparation, loading, running, and data analysis.
# Phosphorylation of these sites has been linked to acute activation or catalytic activity of the PKC isoforms and Erk1/2. High level of phosphorylation indicates strong activation.
# C1b domain of human PKCε = target: T5, C1b domain of human PKCε (Homo sapiens, UniProt Q02156); experiment: Competitive 3H-PDBu binding to C1b domain of PKCε
# T5 construct: Genes encoding C1b domains of human PKCα, δ, ε, θ, and PKD1 (PKCμ) were synthesized; made in house; host or cells: E. coli BL21(DE3)
# T5 sequence (Q02156 242-292 limits assumed): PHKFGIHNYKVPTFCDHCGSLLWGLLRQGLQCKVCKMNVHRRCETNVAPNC
# In short: as §3
# [10] = Homo sapiens, KP-4, read-out: IC50 in μM KP-4 (Pancreatic)
# [11] = Homo sapiens, HL-60, read-out: IC50 in μM HL-60 (Leukemia)
# [12] = Homo sapiens, MINO, read-out: IC50 in μM Mino (Lymphoma)
SMILES,IC50 [1] [µM],IC50 [2] [µM],"ratio of (IC50 of K01)/(IC50 of compound), Panc2.13 [1]","ratio of (IC50 of K01)/(IC50 of compound), Namalwa [2]","IC50 [3, 10] [µM]",Ki (C1b domain of human PKCδ) [nM],IC50 (PANC1 cells) [nM],"ratio of (IC50 of K01)/(IC50 of compound), HL-60 ([5]; HL-60; value in parenthesis)","IC50 [5, 11] [µM]","IC50 [6, 12] [µM]","ratio of (IC50 of K01)/(IC50 of compound), Mino ([6]; Mino; value in parenthesis)",Ki [8] [nM],Ki (C1b domain of human PKCθ) [nM],"IC50 ([7]; A549, 96 h) [µM]","phosphorylation of PKC (PKD/PKCμ), PKCδ and Erk1/2 [9]",Ki (C1b domain of human PKCε) [nM],also measured
"CC(=O)O[C@@]12C[C@@H](C)[C@@]3(O)[C@@H](C=C(CO)C[C@]4(O)C(=O)C(C)=C[C@@H]34)[C@@H]1C2(C)C [Compound K101, prostratin, reference compound]",0.6 to 1,0.06 to 0.1,,,,,,,,,,,,,,,"IC50 ([3]; Homo sapiens, KP-4; read-out: IC50 in μM KP-4 (Pancreatic)): 0.2 to 0.6 µM; phosphorylation of CaMKii at T286 [4]: induced phosphorylation of CaMKii at T286; IC50 (PANC1 cells; PANC1 single cell suspension, spheres counted after 3-4 weeks): ≤ 500 nM; IC50 ([5]; Homo sapiens, HL-60; read-out: IC50 in μM HL-60 (Leukemia)): 0.2 to 0.6 µM; IC50 ([6]; Homo sapiens, MINO; read-out: IC50 in μM Mino (Lymphoma)): 0.06 to 0.1 µM; IC50 ([7]; A549, 96 hours incubation, CellTiter Glo): 0.03 to 0.06 µM"
CC1=C[C@H]2[C@@]3(O)[C@H](C)C[C@]4(OC(=O)[C@@H](N)C5Cc6ccccc6C5)[C@H]([C@@H]3C=C(CO)C[C@]2(O)C1=O)C4(C)C [Compound K101-C1329],0.1 to 0.2,0.03 to 0.06,5.82,1.6,0.06 to 0.1,< 5,≤ 150,1.79,0.03 to 0.06,0.01 to 0.03,5.5,< 5,5 to 10,0.06 to 0.1,induced high levels of phosphorylation,1 to 30,Ki (C1b domain of human PKCα; Ki PKCα): 30 to 60 nM
CC1=C[C@H]2[C@@]3(O)[C@H](C)C[C@]4(OC(=O)[C@@H](N)CCCc5ccccc5)[C@H]([C@@H]3C=C(CO)C[C@]2(O)C1=O)C4(C)C [Compound K101-C1319],0.2 to 0.6,0.03 to 0.06,3.65,1.53,0.1 to 0.2,< 5,≤ 1500,1.79,0.03 to 0.06,0.01 to 0.03,6,< 5,5 to 10,0.06 to 0.1,induced high levels of phosphorylation,30 to 60,Ki PKCα (C1b domain of human PKCα): E (E=>60 nM and ≤10 nM)

# — US20220411362A1, “DITERPENOID COMPOUNDS THAT ACT ON PROTEIN KINASE C (PKC)” (K-Gen, Inc., priority 2019, published 2022)
